Data from patent US20090136448A1, “Antiviral 2-Carboxy-Thiophene Compounds” (priority 2005, published 2009).

Key:
[1] = tested on: HCV replication, genotype 1b (Huh-7 HCV replicon cell, sub-line 5-15); experiment: Replicon ELISA cell based assay, genotype 1b; conditions: Hepatitis C virus, Huh-7 HCV replicon cells, genotype 1b (sub-line 5-15), 72 hours, mean, assayed at least twice
Procedure: (§1) Replicon ELISA Cell Based Assay
(§2) 100 μL of medium containing 10% FCS were added to each well of clear, flat-bottomed 96 well microplates, excepting wells in the top row. Test compound was diluted in assay medium to twice the final required starting concentration from a 40 mM stock solution in DMSO. 200 μL of the starting dilution were introduced into two wells each in the top row and doubling dilutions made down the plate by the sequential transfer of 100 μL aliquots with thorough mixing in the wells; the final 100 μL were discarded. The two bottom rows were not used for compound dilutions. Huh-7 HCV replicon cell monolayers nearing confluency were stripped from growth flasks with versene-trypsin solution and the cells were resuspended in assay medium at either 2×10^5 cells/mL (sub-line 5-15; genotype 1b; Lohmann, V., Korner, F., Koch, J-O., Herian, U., Thielmann, L. and Bartenschlager, R., Science, 1999, 285, 110-113) or at 3×10^5 cells/mL (genotype 1a; Gu, B., Gates, A. T., Isken, O., Behrens, S. E. and Sarisky, R. T., J. Virol., 2003, 77, 5352-5359). 100 μL of cell suspension were added to all wells and the plates incubated at 37° C. for 72 hours in a 5% CO2 atmosphere.
(§3) Following incubation, the assay medium was aspirated from the plates. The cell sheets were washed by gentle immersion in phosphate buffered saline (PBS), which was then aspirated off, and fixed with acetone:methanol (1:1) for 5 minutes. Following a further wash with PBS, 100 μL of ELISA diluent (PBS+0.05% v/v Tween 20+2% w/v skimmed milk powder) were added to all wells and the plates incubated at 37° C. for 30 minutes on an orbital platform. The diluent was removed and each well then received 50 μL of a 1/200 dilution of anti-HCV specific, murine, monoclonal antibody (either Virostat #1872 or #1877), except for wells in one of the compound-free control rows which received diluent alone to act as negative controls. The plates were incubated at 37° C. for 2 hours and washed 3 times with PBS/0.05% Tween 20, then 50 μL of horseradish peroxidase conjugated, anti-mouse, rabbit polyclonal serum (Dako #P0260), diluted 1/1000, were added to all wells. The plates were incubated for a further hour, the antibody removed and the cell sheets washed 5 times with PBS/Tween and blotted dry. The assay was developed by the addition of 50 μL of ortho-phenylenediamine/peroxidase substrate in urea/citrate buffer (SigmaFast, Sigma #P-9187) to each well, and colour allowed to develop for up to 15 minutes. The reaction was stopped by the addition of 25 μL per well of 2 M sulphuric acid and the plates were read at 490 nm on a Fluostar Optima spectrophotometer.
(§4) The substrate solution was removed and the plates were washed in tap water, blotted dry and the cells stained with 5% carbol fuchsin in water for 30 minutes. The stain was discarded and the cell sheets washed, dried and examined microscopically to assess cytotoxicity.
(§5) The absorbance values from all compound-free wells that had received both primary and secondary antibodies were averaged to obtain a positive control value. The mean absorbance value from the compound-free wells that had not received the primary antibody was used to provide the negative (background) control value. The readings from the duplicate wells at each compound concentration were averaged and, after the subtraction of the mean background from all values, were expressed as a percentage of the positive control signal. The quantifiable and specific reduction of expressed protein detected by the ELISA in the presence of a drug can be used as a measure of replicon inhibition. GraFit software (Erithacus Software Ltd.) was used to plot the curve of percentage inhibition against compound concentration and derive the 50% inhibitory concentration (IC50) for the compound.

[2] = tested on: HCV replication, genotype 1a (Huh-7 HCV replicon cell); experiment: Replicon ELISA cell based assay, genotype 1a; conditions: Hepatitis C virus, Huh-7 HCV replicon cells, 72 hours, mean, assayed at least twice
Procedure: as §1, §2, §3, §4, §5

SMILES | IC50 [1] [nM] | IC50 [2] [nM]
CC(C)N(C(=O)[C@H]1CC[C@H](C)C[C@H]1O)c1cc(-c2ccc(-c3cc4ncccn4n3)cc2)sc1C(=O)O [Example 39, 3-[{[(1S,2R,4S)-2-Hydroxy-4-methylcyclohexyl]carbonyl}(1-methylethyl)amino]-5-(4-pyrazolo[1,5-a]pyrimidin-2-ylphenyl)-2-thiophenecarboxylic acid] | 5 to 10 | 10 to 50
CC(C)N(c1cc(-c2ccc(C#N)cc2)sc1C(=O)O)C(=O)[C@H]1CC[C@H](C)CC1 [Compound D, 5-(4-Cyanophenyl)-3-[[(trans-4-methylcyclohexyl)carbonyl](1-methylethyl)amino]-2-thiophenecarboxylic acid, reference compound] | 1000 to 5000 | 1000 to 5000
CC(C)N(c1cc(-c2ccc(-c3cc4cccc(O)c4o3)cc2)sc1C(=O)O)C(=O)[C@H]1CC[C@H](C)CC1 [Example 19, 5-[4-(7-Hydroxy-1-benzofuran-2-yl)phenyl]-3-[[(trans-4-methylcyclohexyl)carbonyl](1-methylethyl)amino]-2-thiophenecarboxylic acid] | < 5 | < 5
CC(C)N(c1cc(-c2ccc(-c3nc4ncccc4o3)nc2)sc1C(=O)O)C(=O)[C@H]1CC[C@H](C)CC1 [Example 46, 3-[[(trans-4-Methylcyclohexyl)carbonyl](1-methylethyl)amino]-5-(6-[1,3]oxazolo[4,5-b]pyridin-2-yl-3-pyridinyl)-2-thiophenecarboxylic acid] | 100 to 500 | 100 to 500
CC(C)N(c1cc(-c2ccc(-c3nc4c(N)cccc4o3)cc2)sc1C(=O)O)C(=O)[C@H]1CC[C@H](C)CC1 [Example 16, 5-[4-(4-Amino-1,3-benzoxazol-2-yl)phenyl]-3-[[(trans-4-methylcyclohexyl)carbonyl](1-methylethyl)amino]-2-thiophenecarboxylic acid] | 10 to 50 | 10 to 50
C[C@H]1CC[C@H](C(=O)N(CC2CC2)c2cc(-c3ccc(-c4cc5ncccn5n4)cc3)sc2C(=O)O)CC1 [Example 35, 3-{(Cyclopropylmethyl)[(trans-4-methylcyclohexyl)carbonyl]amino}-5-(4-pyrazolo[1,5-a]pyrimidin-2-ylphenyl)-2-thiophenecarboxylic acid] | 5 to 10 | 10 to 50
CC(C)N(c1cc(-c2ccc(-c3nc4ncccc4o3)cc2)sc1C(=O)O)C(=O)[C@H]1CC[C@H](C(F)(F)F)CC1 [Example 25, 3-((1-Methylethyl){[trans-4-(trifluoromethyl)cyclohexyl]carbonyl}amino)-5-(4-[1,3]oxazolo[4,5-b]pyridin-2-ylphenyl)-2-thiophenecarboxylic acid] | 100 to 500 | 100 to 500
CC(C)N(c1cc(-c2ccc(-c3cc4ncccn4n3)cc2)sc1C(=O)O)C(=O)[C@H]1CC[C@H](C)CC1 [Example 2, 3-[[(trans-4-Methylcyclohexyl)carbonyl](1-methylethyl)amino]-5-(4-pyrazolo[1,5-a]pyrimidin-2-ylphenyl)-2-thiophenecarboxylic acid] | 10 to 50 | 10 to 50
CC(C)N(c1cc(-c2ccc(-c3ccc4nc[nH]c4c3)cc2)sc1C(=O)O)C(=O)[C@H]1CC[C@H](C)CC1 [Example 28, 5-[4-(1H-Benzimidazol-5-yl)phenyl]-3-[[(trans-4-methylcyclohexyl)carbonyl](1-methylethyl)amino]-2-thiophenecarboxylic acid] | 100 to 500 | 100 to 500
CC(C)N(c1cc(-c2coc(-c3nc4ccccc4o3)c2)sc1C(=O)O)C(=O)[C@H]1CC[C@H](C)CC1 [Example 31, 5-[5-(1,3-Benzoxazol-2-yl)-3-furanyl]-3-[[(trans-4-methylcyclohexyl)carbonyl](1-methylethyl)amino]-2-thiophenecarboxylic acid] | 100 to 500 | 100 to 500
CC(C)N(c1cc(-c2ccc(-c3cc4ncccn4n3)s2)sc1C(=O)O)C(=O)[C@H]1CC[C@H](C)CC1 [Example 36, 4-[[(trans-4-Methylcyclohexyl)carbonyl](1-methylethyl)amino]-5′-pyrazolo[1,5-a]pyrimidin-2-yl-2,2′-bithionhene-5-carboxylic acid] | 10 to 50 | 10 to 50
CC(C)N(c1cc(-c2ccc(-c3cn4ccsc4n3)cc2)sc1C(=O)O)C(=O)[C@H]1CC[C@H](C(F)(F)F)CC1 [Example 21, 5-(4-Imidazo[2,1-b][1,3]thiazol-6-ylphenyl)-3-((1-methylethyl){[trans-4-(trifluoromethyl)cyclohexyl]carbonyl}amino)-2-thiophenecarboxylic acid] | 100 to 500 | 50 to 100
CC(=O)c1ccc(-c2cc(N(C(=O)[C@H]3CC[C@H](C)CC3)C(C)C)c(C(=O)O)s2)cc1 [Compound E, 5-(4-Acetylphenyl)-3-[[(trans-4-methylcyclohexyl)carbonyl](1-methylethyl)amino]-2-thiophenecarboxylic acid, reference compound] | 1000 to 5000 | 1000 to 5000
Cc1ccn2nc(-c3ccc(-c4cc(N(C(=O)[C@H]5CC[C@H](C(F)(F)F)CC5)C(C)C)c(C(=O)O)s4)cc3)cc2n1 [Example 26, 3-((1-Methylethyl){[trans-4-(trifluoromethyl)cyclohexyl]carbonyl}amino)-5-[4-(5-methylpyrazolo[1,5-a]pyrimidin-2-yl)phenyl]-2-thiophenecarboxylic acid] | 500 to 1000 | 100 to 500
CC(C)N(c1cc(-c2ccc(-c3cn4ccccc4n3)cc2)sc1C(=O)O)C(=O)[C@H]1CC[C@H](C)CC1 [Example 3, 5-(4-Imidazo[1,2-a]pyridin-2-ylphenyl)-3-[[(trans-4-methylcyclohexyl)carbonyl](1-methylethyl)amino]-2-thiophenecarboxylic acid] | 10 to 50 | 50 to 100
CC(C)N(c1cc(-c2ccc(-c3nc4ncccc4o3)cc2)sc1C(=O)O)C(=O)[C@H]1CC[C@H](C)CC1 [Example 8, 3-[[(4-Methylcyclohexyl)carbonyl](1-methylethyl)amino]-5-(4-[1,3]oxazolo[4,5-b]pyridin-2-ylphenyl)-2-thiophenecarboxylic acid] | 10 to 50 | 10 to 50
CC(C)N(c1cc(-c2ccc(-c3cc4ncccc4o3)s2)sc1C(=O)O)C(=O)[C@H]1CC[C@H](C)CC1 [Example 43, 5′-Furo[3,2-b]pyridin-2-yl-4-[[(trans-4-methylcyclohexyl)carbonyl](1-methylethyl)amino]-2,2′-bithiophene-5-carboxylic acid] | 50 to 100 | 500 to 1000
CC(C)N(c1cc(-c2ccc(-c3cc4nccc(N)n4n3)cc2)sc1C(=O)O)C(=O)[C@H]1CC[C@H](C)CC1 [Example 7, 5-[4-(7-Aminopyrazolo[1,5-a]pyrimidin-2-yl)phenyl]-3-[[(trans-4-methylcyclohexyl)carbonyl](1-methylethyl)amino]-2-thiophenecarboxylic acid] | < 5 | < 5
CC(C)N(c1cc(-c2ccc(-c3cnc4occc4c3)cc2)sc1C(=O)O)C(=O)[C@H]1CC[C@H](C)CC1 [Example 9, 5-(4-Furo[2,3-b]pyridin-5-ylphenyl)-3-[[(trans-4-methylcyclohexyl)carbonyl](1-methylethyl)amino]-2-thiophenecarboxylic acid] | 50 to 100 | 100 to 500
CC(C)N(c1cc(-c2ccc(-c3cc4ccc(N)cc4o3)cc2)sc1C(=O)O)C(=O)[C@H]1CC[C@H](C)CC1 [Example 30, 5-[4-(6-Amino-1-benzofuran-2-yl)phenyl]-3-[[(trans-4-methylcyclohexyl)carbonyl](1-methylethyl)amino]-2-thiophenecarboxylic acid] | 500 to 1000 | 100 to 500
